Our source for the relative viability values is the supplement of paper PMC10307832.

Holding throughout (experiment): relative viability (nuclei count vs DMSO), 5 days (fraction); higher = more cells survive
Compound in the test “Wnt-C59 + Crizotinib”: CC1=NC=CC(=C1)C2=CC=C(C=C2)CC(=O)NC3=CC=C(C=C3)C4=CN=CC=C4 [Wnt-C59] + C[C@@H](Oc1cc(-c2cnn(C3CCNCC3)c2)cnc1N)c1c(Cl)ccc(F)c1Cl [Crizotinib] (partner 1 µM)
In a few lines:
(§1)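 Dosing by pin tool came one day after lung cancer cell lines were seeded in 1536-well plates, using either one drug or a fixed anchor-drug dose plus five library-drug doses (not always all listed) in √10 steps. After 5 days, nuclei were counted on 4× images. Relative viability is treated-well nuclei count divided by vehicle-well nuclei count, and values are medians of duplicate plates.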

Compound in the test “Wnt-C59 + Alpelisib”: CC1=NC=CC(=C1)C2=CC=C(C=C2)CC(=O)NC3=CC=C(C=C3)C4=CN=CC=C4 [Wnt-C59] + Cc1nc(NC(=O)N2CCC[C@H]2C(N)=O)sc1-c1ccnc(C(C)(C)C(F)(F)F)c1 [Alpelisib] (partner 2 µM)
The procedure, abridged: as §1

Compound in the test “Wnt-C59 + Decitabine”: CC1=NC=CC(=C1)C2=CC=C(C=C2)CC(=O)NC3=CC=C(C=C3)C4=CN=CC=C4 [Wnt-C59] + Nc1ncn([C@H]2C[C@H](O)[C@@H](CO)O2)c(=O)n1 [Decitabine] (partner 2 µM)
The procedure, abridged: as §1

Compound in the test “Lapatinib + Phenformin”: CS(=O)(=O)CCNCc1ccc(-c2ccc3ncnc(Nc4ccc(OCc5cccc(F)c5)c(Cl)c4)c3c2)o1 [Lapatinib] + N=C(N)NC(=N)NCCc1ccccc1 [Phenformin] (partner 250 µM)
The procedure, abridged:
as §1

For the cell line UMC-11, the relative viability with Wnt-C59 + Crizotinib (first compound 0.001 µM) came out at 0.659; in the test with Wnt-C59 + Crizotinib (first compound 0.01 µM), 0.567; in the test with Wnt-C59 + Crizotinib (first compound 0.03162 µM) it was 0.588; in the test with Wnt-C59 + Crizotinib (first compound 0.1 µM) it was 0.518; with Wnt-C59 + Alpelisib (first compound 0.001 µM), 1.08; with Wnt-C59 + Alpelisib (first compound 0.01 µM), 0.978. The relative viability came to 1.07 with Wnt-C59 + Alpelisib (first compound 0.03162 µM); 1.01 with Wnt-C59 + Alpelisib (first compound 0.1 µM); 0.572 with Wnt-C59 + Decitabine (first compound 0.001 µM); 0.607 with Wnt-C59 + Decitabine (first compound 0.01 µM); 0.559 in the test with Wnt-C59 + Decitabine (first compound 0.03162 µM); 0.72 in the test with Wnt-C59 + Decitabine (first compound 0.1 µM). Also, the relative viability with Lapatinib + Phenformin (first compound 0.02 µM) came to 0.351; in the test with Lapatinib + Phenformin (first compound 0.06325 µM) it was 0.306; with Lapatinib + Phenformin (first compound 0.2 µM), 0.297; with Lapatinib + Phenformin (first compound 0.6325 µM), 0.321; with Lapatinib + Phenformin (first compound 2 µM), 0.298.
